Reference: ChEMBL document CHEMBL4052743, “Oxindole-based intraocular pressure reducing agents” (Bioorg Med Chem Lett, 2017)
Active and inactive are the calls of the source. The rule behind the calls is not given here.

How the values were obtained:
[1] = biological target: T1, Ribosyldihydronicotinamide dehydrogenase [quinone] (Homo sapiens, UniProt P16083); test: Inhibition of QR2 (unknown origin) using MTT and NMeH as substrates
T1 sequence (P16083 whole entry): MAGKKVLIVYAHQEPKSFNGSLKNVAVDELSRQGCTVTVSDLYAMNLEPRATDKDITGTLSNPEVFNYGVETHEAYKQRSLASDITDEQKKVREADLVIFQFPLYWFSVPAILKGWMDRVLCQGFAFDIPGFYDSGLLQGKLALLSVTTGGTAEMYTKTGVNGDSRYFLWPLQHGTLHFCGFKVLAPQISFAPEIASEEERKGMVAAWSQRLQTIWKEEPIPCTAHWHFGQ

[2] = biological target: T2, Ribosyldihydronicotinamide dehydrogenase [quinone] (Homo sapiens) (UniProt P16083); test: Inhibition of QR2 (unknown origin) using MTT and NMeH as substrates relative to control
T2 sequence (whole entry): T1 sequence (P16083 whole entry)

Oryctolagus cuniculus [3] = organism: Oryctolagus cuniculus; test: (§1) Reduction in intraocular pressure in Chinchilla rabbit assessed as maximal change in intraocular pressure at 0.1% after application of one drop (0.06 ml) of solution containing active compound/vehicle every hour (during 6 hours and after 24 hours) by automatic tonometry; type: functional
Oryctolagus cuniculus [4] = organism: Oryctolagus cuniculus; test: as §1, with “maximum effective time required for reduction of intraaocular” for “maximal change in intraocular”; type: functional
[5] = Toxicity in rat; details: in vivo
Oryctolagus cuniculus [6] = organism: Oryctolagus cuniculus; test: as §1, with “maximum effective time required for reduction of intraaocular” for “maximal change in intraocular”, “hours) and measured after 24 hrs post dose” for “hours)”; type: functional
[7] = Inhibition of MT-3 (unknown origin); parameters: species or system Homo sapiens
[8] = Binding affinity to MT-3 (unknown origin); parameters: species or system Homo sapiens
Oryctolagus cuniculus [9] = test: Reduction in intraocular pressure in New Zealand white rabbit at 100 mg/10 ml dosed via topical route measured after 0.5 to 6 hrs post dose by tonometry; type: functional; parameters: scale not given: the % may be the effect or the level left
Oryctolagus cuniculus [10] = organism: Oryctolagus cuniculus; test: (§2) Reduction in intraocular pressure in Chinchilla rabbit assessed as maximal change in intraocular pressure at 0.1% after application of one drop (0.06 ml) of solution containing active compound/vehicle every hour (during 6 hours and after 24 hours) by applanation tonometry; type: functional; parameters: scale not given: the % may be the effect or the level left
Oryctolagus cuniculus [11] = organism: Oryctolagus cuniculus; test: as §2, with “maximum effective time required for reduction of intraaocular” for “maximal change in intraocular”; type: functional
Oryctolagus cuniculus [12] = organism: Oryctolagus cuniculus; test: Reduction in intraocular pressure in Chinchilla rabbit assessed as maximal change in intraocular pressure at 1% after application of one drop (0.06 ml) of solution containing active compound/vehicle every hour (during 6 hours and after 24 hours) by applanation tonometry; type: functional
Oryctolagus cuniculus [13] = organism: Oryctolagus cuniculus; test: as §1, with “maximum effective time required for reduction of intraaocular” for “maximal change in intraocular”, “hours) and measured after 6 hrs post dose” for “hours)”; type: functional
[14] = Solubility in water; type: physicochemical; details: buffer
Oryctolagus cuniculus [15] = organism: Oryctolagus cuniculus; test: Reduction in intraocular pressure in Chinchilla rabbit assessed as maximal change in intraocular pressure at 0.5% after application of one drop (0.06 ml) of solution containing active compound/vehicle every hour (during 6 hours and after 24 hours) by applanation tonometry; type: functional

For `COc1ccc2c(c1)C1(C(=O)N2)C2CCC(C2)C1CNC(C)=O` (stereo not drawn), the IC50 [1] was 63 µM, the Imax [2] was 59.6% and the Activity (Oryctolagus cuniculus [3]) was “inactive”. For the same compound, the Time (Oryctolagus cuniculus [4]) was “inactive”, the LD50 [5] was greater than 2400 mg/kg and the Activity (Oryctolagus cuniculus [6]) was “inactive”.
With `COC(=O)Nc1ccc2[nH]cc(CCNC(C)=O)c2c1` the IC50 [7] was 0.058 µM, the Ki [8] was 0.065 µM and the Activity (Oryctolagus cuniculus [9]) was 45%.
For `COc1ccc2[nH]cc(CCNC(C)=O)c2c1` [MELATONIN], the Activity (Oryctolagus cuniculus [10]) was 12%, the Time (Oryctolagus cuniculus [11]) was 4 h and the Activity (Oryctolagus cuniculus [3]) was 26 - 31%. The Time (Oryctolagus cuniculus [4]) was 3 h, the Activity (Oryctolagus cuniculus [12]) was “inactive” and the Activity (Oryctolagus cuniculus [6]) was “inactive”.
For `N#CCC1C(=O)Nc2ccc(Br)cc21` (stereo not drawn), the Activity (Oryctolagus cuniculus [3]) was “inactive”, the Time (Oryctolagus cuniculus [4]) was “inactive” and the LD50 [5] was greater than 2400 mg/kg. For the same compound, the Activity (Oryctolagus cuniculus [6]) was “inactive”.
Work on `CCC(=O)Nc1cc(NC(=O)CC)c2c(c1)C(CC#N)(OC(=O)CC)C(=O)N2` (stereo not drawn) yielded an Activity (Oryctolagus cuniculus [3]) of 15%, a Time (Oryctolagus cuniculus [4]) of 2 h and an LD50 [5] greater than 2400 mg/kg. For the same compound, the Activity (Oryctolagus cuniculus [6]) was “inactive”.
With `CC(=O)Nc1ccc2c(c1)C(CC#N)C(=O)N2` (stereo not drawn) the Activity (Oryctolagus cuniculus [3]) was 22%, the Time (Oryctolagus cuniculus [4]) was 4 h and the LD50 [5] was greater than 2400 mg/kg. For the same compound, the Activity (Oryctolagus cuniculus [6]) was “inactive”.
In the case of `CC(=O)NCCC1(O)C(=O)Nc2ccc(NC(C)=O)cc21` (stereo not drawn), the Activity (Oryctolagus cuniculus [3]) is reported as “inactive”, the Time (Oryctolagus cuniculus [4]) is reported as “inactive” and the LD50 [5] is reported as greater than 2400 mg/kg. For the same compound, the Activity (Oryctolagus cuniculus [6]) was “inactive”.
In the case of `COc1ccc2c(c1)c(CCNC(C)=O)cn2C`, the IC50 [1] is reported as 5.7 µM, the Imax [2] is reported as 102% and the Activity (Oryctolagus cuniculus [3]) is reported as 8%. The Time (Oryctolagus cuniculus [4]) was 2 h, the LD50 [5] was greater than 2400 mg/kg and the Activity (Oryctolagus cuniculus [6]) was “inactive”.
`CCC(=O)Nc1cc(NC(=O)CC)c2c(c1)C(O)(CC#N)C(=O)N2` (stereo not drawn) showed an Activity (Oryctolagus cuniculus [3]) of 29%, a Time (Oryctolagus cuniculus [4]) of 4 h and an LD50 [5] greater than 2400 mg/kg. The Activity (Oryctolagus cuniculus [6]) was “inactive”.
`CC(=O)Nc1ccc2c(c1)C(O)(CC(=O)O)C(=O)N2` (stereo not drawn) gave an Activity (Oryctolagus cuniculus [3]) of 18%, a Time (Oryctolagus cuniculus [4]) of 2 h and an LD50 [5] greater than 2400 mg/kg. The Activity (Oryctolagus cuniculus [6]) was “inactive”.
In the case of `CC(=O)NCCC1C(=O)Nc2ccc(Br)cc21` (stereo not drawn), the IC50 [1] is reported as 19 µM, the Imax [2] is reported as 29.9% and the Activity (Oryctolagus cuniculus [3]) is reported as “inactive”. The Time (Oryctolagus cuniculus [4]) was “inactive”, the LD50 [5] was greater than 2400 mg/kg and the Activity (Oryctolagus cuniculus [6]) was “inactive”.
`CC(=O)Nc1ccc2c(c1)C(CC(=O)O)C(=O)N2` (stereo not drawn) gave an Activity (Oryctolagus cuniculus [3]) of 41%, a Time (Oryctolagus cuniculus [4]) of 4 h and an LD50 [5] greater than 2400 mg/kg. The Activity (Oryctolagus cuniculus [13]) was “Active” and the solubility [14] was “Soluble”.
Compound `COc1ccc2c(c1)C1(CC1CNC(C)=O)C(=O)N2C` (stereo not drawn) has an IC50 [1] of 5.1 µM, an Imax [2] of 93.9% and an Activity (Oryctolagus cuniculus [3]) of 10%. The Time (Oryctolagus cuniculus [4]) was 2 h, the LD50 [5] was greater than 2400 mg/kg and the Activity (Oryctolagus cuniculus [6]) was “inactive”.
For `CC(=O)Nc1ccc2c(c1)C(CC#N)C(=O)N2C` (stereo not drawn), the Activity (Oryctolagus cuniculus [3]) was “inactive”, the Time (Oryctolagus cuniculus [4]) was “inactive” and the LD50 [5] was greater than 2400 mg/kg. The Activity (Oryctolagus cuniculus [6]) was “inactive”.
`COc1cc(NC(C)=O)c2c(c1)C(CC#N)(OC(C)=O)C(=O)N2` (stereo not drawn) showed an Activity (Oryctolagus cuniculus [3]) of 18%, a Time (Oryctolagus cuniculus [4]) of 2 h and an LD50 [5] greater than 2400 mg/kg. For the same compound, the Activity (Oryctolagus cuniculus [6]) was “inactive”.
In the case of `CC(=O)NCCC1C(=O)Nc2ccc(NC(C)=O)cc21` (stereo not drawn), the Activity (Oryctolagus cuniculus [3]) is reported as “inactive”, the Time (Oryctolagus cuniculus [4]) is reported as “inactive” and the LD50 [5] is reported as greater than 2400 mg/kg. The Activity (Oryctolagus cuniculus [6]) was “inactive”.
For `CC(=O)NCCc1cn(C)c2c(C)c(C)ccc12`, the IC50 [1] was 4.5 µM, the Imax [2] was 97.4% and the Activity (Oryctolagus cuniculus [3]) was “inactive”. For the same compound, the Time (Oryctolagus cuniculus [4]) was “inactive”, the LD50 [5] was greater than 2400 mg/kg and the Activity (Oryctolagus cuniculus [6]) was “inactive”.
`CC(C)(C)NC[C@H](O)COc1nsnc1N1CCOCC1` [TIMOLOL] showed an Activity (Oryctolagus cuniculus [10]) of 11%, a Time (Oryctolagus cuniculus [11]) of 3 h and an Activity (Oryctolagus cuniculus [3]) of 32%. For the same compound, the Time (Oryctolagus cuniculus [4]) was 4 h and the Activity (Oryctolagus cuniculus [6]) was “inactive”.
With `COc1ccc2[nH]c(Cl)c(CCNC(C)=O)c2c1` the IC50 [1] was 13 µM, the Imax [2] was 91% and the Activity (Oryctolagus cuniculus [3]) was “inactive”. The Time (Oryctolagus cuniculus [4]) was “inactive”, the LD50 [5] was greater than 2400 mg/kg and the Activity (Oryctolagus cuniculus [6]) was “inactive”.
For `COc1ccc2c(c1)C(CC#N)C(=O)N2` (stereo not drawn), the Activity (Oryctolagus cuniculus [3]) was “inactive”, the Time (Oryctolagus cuniculus [4]) was “inactive” and the LD50 [5] was greater than 2400 mg/kg. The Activity (Oryctolagus cuniculus [6]) was “inactive”.
With `CC(=O)Nc1ccc2c(c1)C(O)(CC#N)C(=O)N2` (stereo not drawn) the Activity (Oryctolagus cuniculus [3]) was “inactive”, the Time (Oryctolagus cuniculus [4]) was “inactive” and the LD50 [5] was greater than 2400 mg/kg. The Activity (Oryctolagus cuniculus [6]) was “inactive”.
Work on `CCOC(=O)C(C(=O)O)C1C(=O)Nc2ccc(OC)cc21` (stereo not drawn) yielded an Activity (Oryctolagus cuniculus [3]) of 18%, a Time (Oryctolagus cuniculus [4]) of 4 h and an LD50 [5] greater than 2400 mg/kg. The Activity (Oryctolagus cuniculus [6]) was “inactive”.
In the case of `CC(=O)Nc1cc(NC(C)=O)c2c(c1)C(CC#N)(OC(C)=O)C(=O)N2` (stereo not drawn), the Activity (Oryctolagus cuniculus [3]) is reported as 21%, the Time (Oryctolagus cuniculus [4]) is reported as 2 h and the LD50 [5] is reported as greater than 2400 mg/kg. The Activity (Oryctolagus cuniculus [15]) was “Active”, the Activity (Oryctolagus cuniculus [12]) was “inactive” and the Activity (Oryctolagus cuniculus [6]) was “inactive”.
With `CC(=O)Nc1cccc2c1NC(=O)C2CC#N` (stereo not drawn) the Activity (Oryctolagus cuniculus [3]) was “inactive”, the Time (Oryctolagus cuniculus [4]) was “inactive” and the LD50 [5] was greater than 2400 mg/kg. For the same compound, the Activity (Oryctolagus cuniculus [6]) was “inactive”.
